What was measured:
Assay in all cases: Bliss excess, mean over the matrix (fraction); higher = more synergy
[1] = system: SW1783 (Low Grade Glioma)
Method in brief: (§1)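 Bliss excess equals the observed combination effect minus the expected value EA + EB − EA·EB, where EA and EB are the effects of each agent alone. Combination Emax is the second-highest inhibition within the matrix. Inhibition was scaled from CellTiter-Glo 2.0 luminescence, with 0 set by vehicle wells and 1 by blank wells, after 72 hours of two-drug dosing of cells plated in 1536-well plates.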

[2] = system: LS-513 (Colorectal Carcinoma)
Method in brief: as §1

[3] = system: NALM-6 (B-Lymphoblastic Leukemia)
Method in brief: as §1

DSH1 (Bladder Carcinoma) = system: DSH1 (Bladder Carcinoma)
Method in brief: as §1

[4] = system: HT-29 (Colorectal Carcinoma)
Method in brief: as §1

NCI-H2595 (Mesothelioma) = system: NCI-H2595 (Mesothelioma)
Method in brief: as §1

ES7 (Ewing's Sarcoma) = system: ES7 (Ewing's Sarcoma)
Method in brief: as §1

SK-N-FI (Neuroblastoma) = system: SK-N-FI (Neuroblastoma)
Method in brief: as §1

[5] = system: U-266 (Plasma Cell Myeloma)
Method in brief: as §1

[6] = system: IHH-4 (Thyroid Gland Carcinoma)
Method in brief: as §1

[7] = system: SW1990 (Pancreatic Carcinoma)
Method in brief: as §1

[8] = system: KARPAS-620 (Plasma Cell Myeloma)
Method in brief: as §1

[9] = system: MFH-ino (Other Solid Carcinomas)
Method in brief: as §1

[10] = system: TE-5 (Esophageal Squamous Cell Carcinoma)
Method in brief: as §1

Compound | Bliss excess [1] | Bliss excess [2] | Bliss excess [3] | Bliss excess (DSH1 (Bladder Carcinoma)) | Bliss excess [4] | Bliss excess (NCI-H2595 (Mesothelioma)) | Bliss excess (ES7 (Ewing's Sarcoma)) | Bliss excess (SK-N-FI (Neuroblastoma)) | Bliss excess [5] | Bliss excess [6] | Bliss excess [7] | Bliss excess [8] | Bliss excess [9] | Bliss excess [10]
CN(CCO)CC[C@H](CSc1ccccc1)Nc1ccc(S(=O)(=O)NC(=O)c2ccc(N3CCC([C@@H](O)c4ccccc4-c4ccc(Cl)cc4)CC3)cc2)cc1S(=O)(=O)C(F)(F)F [AZD4320] + Nc1ccn([C@@H]2O[C@H](CO)[C@@H](O)C2(F)F)c(=O)n1 [Gemcitabine] (first compound max 1 µM, 7x7, partner max 0.3 µM) | 0.0546 | -0.0318 | -0.0024 | 0.0381 | 0.0191 | -0.0542 | -0.0271 | 0.0077 | 0.0421 | 0.0132 | 0.0103 | -0.0168 | -0.0252 | 0.0559
N#Cc1cnc(Nc2cc(NC[C@H]3CNCCO3)c(C(F)(F)F)cn2)cn1 [SRA737] + O=c1[nH]cc(F)c(=O)[nH]1 [5-Fluorouracil] (first compound max 10 µM, 7x7, partner max 20 µM) | 0.0143 | -0.0287 | 0.0117 | 0.0051 | 0.021 | -0.0448 | 0.0157 | -0.0627 | 0.0562 | 0.098 | -0.0577 | 0.0096 | 0.0373 | 0.0052
C[C@@H](Oc1cc(-c2cnn(C3CCNCC3)c2)cnc1N)c1c(Cl)ccc(F)c1Cl [Crizotinib] + CC1=C(C(=CC=C1)Cl)NC(=O)C2=CN=C(S2)NC3=CC(=NC(=N3)C)N4CCN(CC4)CCO [Dasatinib] (first compound max 10 µM, 7x7, partner max 2 µM) | 0.103 | -0.0485 | 0.022 | -0.0536 | -0.0002 | 0.0519 | 0.0273 | -0.0425 | -0.0102 | 0.0456 | -0.0312 | 0.0032 | 0.0577 | 0.0287
CN(CCO)CC[C@H](CSc1ccccc1)Nc1ccc(S(=O)(=O)NC(=O)c2ccc(N3CCC([C@@H](O)c4ccccc4-c4ccc(Cl)cc4)CC3)cc2)cc1S(=O)(=O)C(F)(F)F [AZD4320] + CC(=O)O[C@H]1C(=O)[C@@]2(C)[C@H]([C@H](OC(=O)c3ccccc3)[C@]3(O)C[C@H](OC(=O)[C@H](O)[C@@H](NC(=O)c4ccccc4)c4ccccc4)C(C)=C1C3(C)C)[C@]1(OC(C)=O)CO[C@@H]1C[C@@H]2O [Paclitaxel] (first compound max 1 µM, 7x7, partner max 3 µM) | 0.0754 | -0.0136 | 0.013 | 0.163 | 0.0034 | 0.0192 | 0.0227 | -0.025 | 0.0026 | -0.0267 | 0.329 | 0.0111 | 0.0474 | 0.176
O=C(c1cc(Cc2n[nH]c(=O)c3ccccc23)ccc1F)N1CCN(C(=O)C2CC2)CC1 [Olaparib] + COc1nnc2ccc(N3CCC(c4ccc(OCCN5CCN(C)C(=O)[C@H]5C)cc4)CC3)nn12 [AZD5153] (first compound max 10 µM, 7x7, partner max 1 µM) | -0.0177 | -0.0628 | -0.0547 | -0.0925 | -0.0406 | -0.12 | 0.0166 | -0.0577 | -0.0332 | -0.0058 | -0.0669 | -0.0365 | -0.07 | -0.052
CN(CCO)CC[C@H](CSc1ccccc1)Nc1ccc(S(=O)(=O)NC(=O)c2ccc(N3CCC([C@@H](O)c4ccccc4-c4ccc(Cl)cc4)CC3)cc2)cc1S(=O)(=O)C(F)(F)F [AZD4320] + CS(=O)(=O)CCNCc1ccc(-c2ccc3ncnc(Nc4ccc(OCc5cccc(F)c5)c(Cl)c4)c3c2)o1 [Lapatinib] (first compound max 1 µM, 7x7, partner max 10 µM) | 0.0765 | 0.0667 | -0.0112 | 0.0511 | -0.0113 | 0.0034 | 0.0769 | 0.057 | -0.052 | -0.0096 | -0.0093 | 0.0697 | -0.0732 | 0.0542
O=C(c1cc(Cc2n[nH]c(=O)c3ccccc23)ccc1F)N1CCN(C(=O)C2CC2)CC1 [Olaparib] + Cc1c2c(nn1C)CSCc1cc(n(C)n1)CSc1cc(c3ccccc3c1)OCCCc1c(C(=O)O)n(C)c3c-2c(Cl)ccc13 [AZD5991] (first compound max 10 µM, 7x7, partner max 1 µM) | -0.0388 | -0.0082 | -0.039 | -0.0097 | -0.0333 | -0.0396 | 0.022 | -0.0321 | -0.0244 | -0.0093 | -0.0296 | 0.0121 | -0.069 | -0.0427
CC1(C)CCC(CN2CCN(c3ccc(C(=O)NS(=O)(=O)c4ccc(NCC5CCOCC5)c([N+](=O)[O-])c4)c(Oc4cnc5[nH]ccc5c4)c3)CC2)=C(c2ccc(Cl)cc2)C1 [Venetoclax] + CS(=O)(=O)CCNCc1ccc(-c2ccc3ncnc(Nc4ccc(OCc5cccc(F)c5)c(Cl)c4)c3c2)o1 [Lapatinib] (first compound max 1 µM, 7x7, partner max 10 µM) | -0.0232 | -0.0203 | 0.0563 | -0.021 | -0.0493 | -0.0574 | 0.0086 | -0.0126 | -0.0555 | -0.0082 | -0.0384 | 0.0569 | -0.0699 | -0.0388
C[C@@H]1COCCN1c1cc(C2([S@](C)(=N)=O)CC2)nc(-c2ccnc3[nH]ccc23)n1 [AZD6738] + C1CC(C1)(C(=O)[O-])C(=O)[O-].N.N.[Pt+2] [Carboplatin] (first compound max 10 µM, 7x7, partner max 10 µM) | -0.0337 | -0.0225 | -0.0122 | -0.0559 | -0.0194 | -0.0413 | 0.0089 | -0.049 | -0.0751 | 0.0159 | -0.0997 | -0.0135 | -0.0397 | -0.0163
C[C@@H](Nc1cc(F)cc(F)c1)c1cc(C(=O)N(C)C)cc2c(=O)cc(N3CCOCC3)oc12 [AZD8186] + C1CN(CCC1(C(=O)N[C@@H](CCO)C2=CC=C(C=C2)Cl)N)C3=NC=NC4=C3C=CN4 [AZD5363] (first compound max 10 µM, 7x7, partner max 10 µM) | -0.0125 | -0.0681 | -0.0357 | -0.0297 | -0.0172 | -0.0537 | 0.0043 | -0.0299 | -0.0427 | 0.0233 | -0.0436 | 0.0152 | -0.0258 | 0.0152
C=CCn1c(=O)c2cnc(Nc3ccc(N4CCN(C)CC4)cc3)nc2n1-c1cccc(C(C)(C)O)n1 [AZD1775] + Nc1ccn([C@@H]2O[C@H](CO)[C@@H](O)C2(F)F)c(=O)n1 [Gemcitabine] (first compound max 1 µM, partner max 0.3 µM) | 0.0121 | -0.04 | -0.0093 | -0.0833 | 0.0422 | -0.0765 | 0.0319 | -0.0167 | -0.0121 | 0.0306 | -0.0395 | 0.026 | -0.0087 | -0.0678
C[C@@H](Nc1cc(F)cc(F)c1)c1cc(C(=O)N(C)C)cc2c(=O)cc(N3CCOCC3)oc12 [AZD8186] + CC(=O)c1c(C)c2cnc(Nc3ccc(N4CCNCC4)cn3)nc2n(C2CCCC2)c1=O [Palbociclib] (first compound max 10 µM, 7x7, partner max 10 µM) | 0.0594 | 0.0084 | 0.0084 | 0.104 | 0.0614 | -0.0917 | 0.115 | 0.0089 | -0.0285 | 0.125 | -0.0062 | 0.15 | 0.0173 | 0.0301
O=C(c1cc(Cc2n[nH]c(=O)c3ccccc23)ccc1F)N1CCN(C(=O)C2CC2)CC1 [Olaparib] + CC1(C)CCC(CN2CCN(c3ccc(C(=O)NS(=O)(=O)c4ccc(NCC5CCOCC5)c([N+](=O)[O-])c4)c(Oc4cnc5[nH]ccc5c4)c3)CC2)=C(c2ccc(Cl)cc2)C1 [Venetoclax] (first compound max 10 µM, 7x7, partner max 1 µM) | -0.0349 | -0.0498 | 0.104 | -0.0401 | -0.0304 | -0.0577 | 0.0282 | -0.0527 | 0.0388 | -0.0118 | -0.0509 | 0.003 | -0.0622 | -0.0458
C[C@@H](Oc1cc(-c2cnn(C3CCNCC3)c2)cnc1N)c1c(Cl)ccc(F)c1Cl [Crizotinib] + Cn1cnc2c(F)c(Nc3ccc(Br)cc3Cl)c(C(=O)NOCCO)cc21 [Selumetinib] (first compound max 10 µM, 7x7, partner max 10 µM) | -0.0486 | -0.0167 | -0.0149 | -0.117 | -0.018 | -0.064 | -0.0134 | 0.0321 | -0.021 | -0.0246 | -0.0626 | 0.0729 | -0.026 | -0.0366
Cc1cc2ncnn2cc1Nc1ncc2c(n1)n(C1CCOCC1)c(=O)n2C [AZD7648] + COc1cc([C@@H]2c3cc4c(cc3[C@@H](O[C@@H]3O[C@@H]5CO[C@@H](C)O[C@H]5[C@H](O)[C@H]3O)[C@H]3COC(=O)[C@H]23)OCO4)cc(OC)c1O [Etoposide] (first compound max 10 µM, 7x7, partner max 10 µM) | 0.0614 | 0.111 | 0.0869 | 0.0627 | 0.0162 | 0.0252 | 0.052 | -0.0258 | -0.0446 | 0.185 | 0.0302 | 0.0051 | 0.0513 | -0.0089
N#Cc1cnc(Nc2cc(NC[C@H]3CNCCO3)c(C(F)(F)F)cn2)cn1 [SRA737] + CCc1c2c(nc3ccc(O)cc13)-c1cc3c(c(=O)n1C2)COC(=O)[C@]3(O)CC [SN-38] (first compound max 10 µM, 7x7, partner max 0.3 µM) | -0.038 | -0.114 | -0.0083 | -0.0809 | 0.0196 | -0.0762 | -0.0138 | -0.121 | 0.0402 | -0.0117 | -0.0824 | 0.0655 | -0.0461 | -0.0682
Cc1nc(-c2cn3c(n2)-c2ccc(-c4cnn(C(C)(C)C(N)=O)c4)cc2OCC3)n(C(C)C)n1 [Taselisib] + O=C(Nc1ccc2[nH]nc(-c3ccncc3)c2c1)[C@@H]1CCN(CC(=O)N2CCN(c3ccc(-c4ncccn4)cc3)CC2)C1 [SCH772984] (first compound max 10 µM, 7x7, partner max 5 µM) | -0.0071 | -0.0377 | 0.017 | 0.0051 | 0.111 | -0.0324 | 0.036 | 0.0465 | 0.0774 | 0.0056 | 0.0724 | 0.116 | -0.0018 | 0.113
